Columns and labels:
Type in all cases: physicochemical
[1] = pH stability studies under accelerated conditions
Experimental: (§1) The physio-chemical properties of ON 01210.Na, as an exemplary efficacious radiation protectant drug, were determined in order to evaluate appropriate formulation approaches for development of a safe, reliable and effective parenteral formulation of this compound and other radioprotective α,β-unsaturated arylsulfones. Evaluation studies included microscopic studies, partition coefficient, pKa, pH solubility studies, pH stability studies under accelerated conditions, solid state characterization of the drug substance, and solid state stability of drug substance under accelerated conditions. […] This drug was reasonably stable in an aqueous environment at biological pH. Therefore, it was determined that ON 01210.Na could be formulated as a shelf stable parenteral formulation.

[2] = octanol:water partition coefficient (preformulation study)
Experimental: as §1

[3] = accelerated solid-state stability study of the bulk drug substance
Experimental: as §1

degradation rate order [1]: pseudo-first-order
pH-stability profile, degradation ([1]; acidic conditions): rapid
pH-stability profile ([1]; neutral and biological pH): better stability
octanol:water partition coefficient [2]: 1.28-2.87
accelerated solid-state stability [3]: no evidence of degradation
SMILES: O=C([O-])c1ccc(/C=C/S(=O)(=O)Cc2ccc(Cl)cc2)cc1.[Na+] [ON 01210.Na, (E)-4-Carboxystyryl-4-chlorobenzylsulfone, Sodium Salt]
